In brackets after ≈: the same amount, converted by molar mass. Several values for one entry are separate records, joined by “and”; a condition that tells them apart may be missing. Equal values may be shown once. Read-outs that look alike come from different tables or passages of the source.
How the values were obtained:
[1] = tested on: Meloidogyne incognita; experiment: Indoor toxicity test against Meloidogyne incognita second-instar larvae (J2)
Description: Materials: the tested nematodes were collected from three different areas, namely cucumber crops in Dawenkou Town, Tai'an City, Shandong Province, and were all identified as southern root-knot nematodes (Meloidogyne incognita). The diseased roots were washed, cut into small sections of 0.5 cm to 1 cm, rinsed in 1% NaClO solution for about 30 s to 60 s, and rinsed with 200-mesh and 500-mesh sieves to collect nematode eggs for later use. The collected eggs were incubated at 25° C. using the Bayman funnel method and the second-instar larvae were collected 1 time per 24 h to ensure that the second-instar larvae selected each time were fresh and of consistent vitality.
The agent was 98% sulfoxamyl technical, and the comparison agents were 96% oxamyl technical and 87% fosthiazate technical.
The preparation for the agent was in accordance with the provisions for preparation of the liquid medicine in the Agricultural Industry Standard of the People's Republic of China NYT 1833.1-2009 “Guideline for laboratory bioassay of pesticides”, as shown in Table 6.
Methods: according to the experimental plan, the test agent was diluted to different mass concentrations, and 0.5 mL of the agent solution and 0.5 mL of the nematode solution (containing about 100 nematodes) were added into a 24-well cell culture plate. The treatment with each concentration of the agent was repeated 4 times, and auxiliary agent control and blank control were also conducted. […]

[2] = tested on: SD rats; experiment: Acute oral toxicity test, single oral fixed-dose procedure; type: in vivo; settings: single oral dose 500 mg/kg
Description: Materials: the test agent 98% sulfoxamyl technical, batch number 20230708-1, was provided by Ningxia Hugerise Chemical Co., Ltd. Experimental animals: SPF-grade SD rats, half male and half female, weighing 180 g to 220 g, were provided by Jinan Pengyue Experimental Animal Breeding Co., Ltd., license number SCXK (Lu) 20190003. Rearing environment: the rats were housed in an SPF-grade animal room with free access to water and food, a temperature of 20° C. to 25° C., a humidity of 40% to 60%, and a 12 h/12 h light cycle. Feed: conventional pellet feed was provided by Jinan Pengyue Experimental Animal Breeding Co., Ltd.
The test was conducted in accordance with “Toxicological test methods of pesticides for registration, GB15670.5-2017”, “Acute toxicity test, GB15193.3-2003” and relevant acute toxicity research data.
Methods: a single oral fixed-dose procedure was conducted to preliminarily explore the toxic dose range of sulfoxamyl. LD50 and confidence limits were calculated by using the probability unit method (Bliss method). SD rats were randomly divided into 5 groups, 10 rats in each group, half of them were male and half were female. […] The common ratio value among each dose group was 0.75. After a single oral administration, the mortality rate of the experimental animals was recorded within 24 h and 14 days after administration, while the general condition of the animals was observed, and the food intake and body weight changes were recorded.

[3] = tested on: Meloidogyne incognita eggs; experiment: Inhibitory effect on hatching of Meloidogyne incognita eggs; type: in vivo; settings: 7 d
[4] = Meloidogyne incognita, 24 h, 50 mg/L
[5] = Meloidogyne incognita, 24 h, 100 mg/L
[6] = Meloidogyne incognita, 24 h, read-out: Corrected mortality, 50 mg/L, 24 h
[7] = Meloidogyne incognita, 24 h, read-out: Corrected mortality, 100 mg/L, 24 h
[8] = Meloidogyne incognita, 168 h, egg hatching

CCOP(=O)(SC(C)CC)N1CCSC1=O (stereo not shown) [Fosthiazate, fosthiazate]
Corrected mortality ([1]; 3.125 mg/L, 24 h): 17.51% and 18.63% and 12.52% | Death count ([1]; 3.125 mg/L, 24 h): 24 and 38 and 26 and 20 | Mortality ([1]; 3.125 mg/L, 24 h): 23.90% and 25.74% and 16.13% | Corrected mortality ([1]; 6.25 mg/L, 24 h): 33.03% and 29.63% and 42.23% | Death count ([1]; 6.25 mg/L, 24 h): 36 and 60 and 39 and 58 | Mortality ([1]; 6.25 mg/L, 24 h): 38.22% and 35.78% and 44.62% | Corrected mortality ([1]; 12.5 mg/L, 24 h): 57.70% and 46.22% and 41.17% and 62.23% | Death count ([1]; 12.5 mg/L, 24 h): 80 and 64 and 69 and 74 | Mortality ([1]; 12.5 mg/L, 24 h): 50.39% and 46.31% and 63.79% | Corrected mortality ([1]; 25 mg/L, 24 h): 74.92% and 67.46% and 64.47% | Death count ([1]; 25 mg/L, 24 h): 68 and 93 and 116 and 91 | Mortality ([1]; 25 mg/L, 24 h): 76.86% and 70.30% and 65.94% | Corrected mortality ([1]; 50 mg/L, 24 h): 79.38% and 77.71% and 74.49% | Death count ([1]; 50 mg/L, 24 h): 84 and 132 and 94 and 105 | Mortality ([1]; 50 mg/L, 24 h): 80.98% and 79.66% and 75.54% | Corrected mortality ([1]; 100 mg/L, 24 h): 75.25% and 86.39% and 79.87% | Death count ([1]; 100 mg/L, 24 h): 117 and 98 and 141 and 92 | Mortality ([1]; 100 mg/L, 24 h): 77.17% and 87.58% and 80.70% | LC90 ([1]; 24 h): 146.50 µg/mL (≈ 517 µM) | LC50 ([1]; Meloidogyne incognita, 24 h): 14.6 µg/mL (≈ 51.4 µM) | mortality at 3.125 µg/mL ([1]; Meloidogyne incognita, 24 h, 3.125 mg/L): 16.6% | mortality at 6.25 µg/mL ([1]; Meloidogyne incognita, 24 h, 6.25 mg/L): 28.6% | mortality at 12.5 µg/mL ([1]; Meloidogyne incognita, 24 h, 12.5 mg/L): 59.7% | mortality at 25 µg/mL ([1]; Meloidogyne incognita, 24 h, 25 mg/L): 64.2% | mortality at 50 µg/mL [1, 4]: 82.3% | mortality at 100 µg/mL [1, 5]: 80.1% | mortality at 3.125 µg/mL ([1]; Meloidogyne incognita, 24 h, read-out: Corrected mortality, 3.125 mg/L, 24 h): 12.4% | mortality at 6.25 µg/mL ([1]; Meloidogyne incognita, 24 h, read-out: Corrected mortality, 6.25 mg/L, 24 h): 25% | mortality at 25 µg/mL ([1]; Meloidogyne incognita, 24 h, read-out: Corrected mortality, 25 mg/L, 24 h): 62.4% | mortality at 50 µg/mL [1, 6]: 81.5% | mortality at 100 µg/mL [1, 7]: 79.2%

CNC(=O)O/N=C(\SC)C(=O)N(C)C [Oxamyl, N,N-dimethyl-2-[[[(methylamino)carbonyl]oxy]imino]-2-(methylthio)acetamide]
Death count [2]: 6/6 | Main clinical symptom [2]: All rats died within 5 min | Corrected mortality ([1]; 25 mg/L, 24 h): 6.89% and 2.76% and 3.40% and 3.65% | Mortality ([1]; 25 mg/L, 24 h): 8.04% and 3.96% and 4.59% and 4.84% | Corrected mortality ([1]; 25 mg/L, 48 h): 12.13% and 16.63% and 6.92% and 6.73% | Death count ([1]; 25 mg/L, 48 h): 15 and 18 and 9 and 10 | Mortality ([1]; 25 mg/L, 48 h): 13.39% and 17.82% and 8.26% and 8.06% | Corrected mortality ([1]; 25 mg/L, 72 h): 23.34% and 15.88% and 15.37% | Death count ([1]; 25 mg/L, 72 h): 20 and 25 and 19 and 21 | Mortality ([1]; 25 mg/L, 72 h): 24.75% and 17.43% and 16.94% | Corrected mortality ([1]; 50 mg/L, 24 h): 29.73% and 26.88% and 16.90% | Mortality ([1]; 50 mg/L, 24 h): 30.60% and 27.78% and 17.92% | Corrected mortality ([1]; 50 mg/L, 48 h): 44.73% and 39.88% and 31.09% | Mortality ([1]; 50 mg/L, 48 h): 45.52% and 40.74% and 32.08% | Corrected mortality ([1]; 50 mg/L, 72 h): 55.90% and 59.44% and 45.22% | Death count ([1]; 50 mg/L, 72 h): 41 and 76 and 65 and 49 | Mortality ([1]; 50 mg/L, 72 h): 56.72% and 60.19% and 46.23% | Corrected mortality ([1]; 100 mg/L, 24 h): 48.91% and 58.66% and 60.23% | Death count ([1]; 100 mg/L, 24 h): 74 and 54 and 71 and 68 | Mortality ([1]; 100 mg/L, 24 h): 49.54% and 59.17% and 60.71% | Corrected mortality ([1]; 100 mg/L, 48 h): 76.73% and 76.33% and 80.98% | Death count ([1]; 100 mg/L, 48 h): 90 and 84 and 92 and 91 | Mortality ([1]; 100 mg/L, 48 h): 77.06% and 76.67% and 81.25% | Corrected mortality ([1]; 100 mg/L, 72 h): 75.93% and 81.31% and 83.87% and 97.27% | Death count ([1]; 100 mg/L, 72 h): 97 and 89 and 101 and 109 | Mortality ([1]; 100 mg/L, 72 h): 76.38% and 81.65% and 84.17% and 97.32% | Corrected mortality ([1]; 200 mg/L, 24 h): 69.90% and 86.37% and 84.57% and 94.67% | Death count ([1]; 200 mg/L, 24 h): 78 and 90 and 89 | Mortality ([1]; 200 mg/L, 24 h): 70.27% and 86.54% and 84.76% and 94.74% | Corrected mortality ([1]; 200 mg/L, 48 h): 90.24% and 92.27% and 97.86% | Death count ([1]; 200 mg/L, 48 h): 104 and 94 and 97 and 93 | Mortality ([1]; 200 mg/L, 48 h): 90.38% and 92.38% and 97.89% | Corrected mortality ([1]; 200 mg/L, 72 h): 94.12% and 94.18% and 98.93% | Death count ([1]; 200 mg/L, 72 h): 108 and 98 and 99 and 94 | Mortality ([1]; 200 mg/L, 72 h): 94.23% and 94.29% and 98.95% | Death count ([1]; 400 mg/L, 24 h): 99 and 101 and 117 and 112 | Death count ([1]; 400 mg/L, 48 h): 101 and 108 and 119 and 117 | Death count ([1]; 400 mg/L, 72 h): 103 and 110 and 120 and 118 | LC90 ([1]; 24 h): 273.89 µg/mL (≈ 1250 µM) | LC90 ([1]; 48 h): 181.92 µg/mL (≈ 830 µM) | LC90 ([1]; 72 h): 131.82 µg/mL (≈ 601 µM) | LC50 ([1]; Meloidogyne incognita, 24 h): 94.8 µg/mL (≈ 432 µM) | mortality at 50 µg/mL [1, 4]: 23.8% | mortality at 100 µg/mL [1, 5]: 58.3% | mortality at 400 µg/mL ([1]; Meloidogyne incognita, 24 h, 400 mg/L): 96.1% | mortality at 50 µg/mL [1, 6]: 22.8% | mortality at 100 µg/mL [1, 7]: 57.8% | mortality at 400 µg/mL ([1]; Meloidogyne incognita, 24 h, read-out: Corrected mortality, 400 mg/L, 24 h): 96.1% | LC50 ([1]; Meloidogyne incognita, 48 h): 64.4 µg/mL (≈ 294 µM) | mortality at 50 µg/mL ([1]; Meloidogyne incognita, 48 h, 50 mg/L): 29.7% | mortality at 100 µg/mL ([1]; Meloidogyne incognita, 48 h, 100 mg/L): 70.9% | mortality at 200 µg/mL ([1]; Meloidogyne incognita, 48 h, 200 mg/L): 93.7% | mortality at 400 µg/mL ([1]; Meloidogyne incognita, 48 h, 400 mg/L): 98.1% | mortality at 50 µg/mL ([1]; Meloidogyne incognita, 48 h, read-out: Corrected mortality, 50 mg/L, 48 h): 28.7% | mortality at 100 µg/mL ([1]; Meloidogyne incognita, 48 h, read-out: Corrected mortality, 100 mg/L, 48 h): 70.4% | mortality at 200 µg/mL ([1]; Meloidogyne incognita, 48 h, read-out: Corrected mortality, 200 mg/L, 48 h): 93.6% | mortality at 400 µg/mL ([1]; Meloidogyne incognita, 48 h, read-out: Corrected mortality, 400 mg/L, 48 h): 98% | LC50 ([1]; Meloidogyne incognita, 72 h): 49.6 µg/mL (≈ 226 µM) | mortality at 25 µg/mL ([1]; Meloidogyne incognita, 72 h, 25 mg/L): 17.9% | mortality at 50 µg/mL ([1]; Meloidogyne incognita, 72 h, 50 mg/L): 40.6% | mortality at 200 µg/mL ([1]; Meloidogyne incognita, 72 h, 200 mg/L): 97.3% | mortality at 400 µg/mL ([1]; Meloidogyne incognita, 72 h, 400 mg/L): 100% | mortality at 25 µg/mL ([1]; Meloidogyne incognita, 72 h, read-out: Corrected mortality, 25 mg/L, 72 h): 16.3% | mortality at 50 µg/mL ([1]; Meloidogyne incognita, 72 h, read-out: Corrected mortality, 50 mg/L, 72 h): 39.5% | mortality at 200 µg/mL ([1]; Meloidogyne incognita, 72 h, read-out: Corrected mortality, 200 mg/L, 72 h): 97.2% | mortality at 400 µg/mL ([1]; Meloidogyne incognita, 72 h, read-out: Corrected mortality, 400 mg/L, 72 h): 100% | Number of hatched eggs/7 d ([3]; 25 mg/L): 81 and 92 and 90 | Number of unhatched eggs/7 d ([3]; 25 mg/L): 47 and 36 and 42 | Number of hatched eggs/7 d ([3]; 50 mg/L): 83 and 86 and 78 | Number of unhatched eggs/7 d ([3]; 50 mg/L): 53 and 52 | Number of hatched eggs/7 d ([3]; 100 mg/L): 62 and 72 and 71 | Number of unhatched eggs/7 d ([3]; 100 mg/L): 68 and 60 and 58 | Number of hatched eggs/7 d ([3]; 200 mg/L): 26 and 20 and 23 | Number of unhatched eggs/7 d ([3]; 200 mg/L): 97 and 101 and 103 | Number of hatched eggs/7 d ([3]; 400 mg/L): 12 and 15 and 11 | Number of unhatched eggs/7 d ([3]; 400 mg/L): 113 and 117 and 121 | IC50 [3, 8]: 91.6 µg/mL (≈ 418 µM) | IC90 [3, 8]: 480 µg/mL (≈ 2190 µM)

Reference: patent US20250221413A1, “Use and Preparation Method of Sulfoxamyl, and Oxidation System” (priority 2023, published 2025)
